# Source: patent US11840686B2, “Modulation of prekallikrein (PKK) expression” (Ionis Pharmaceuticals, Inc., priority 2013, dated 2023)
# Strand notation (5' to 3'): a small letter for the sugar, then the base; units joined by * are phosphorothioate-linked, units joined directly phosphodiester-linked; [ ] holds rarer units or linkages, { } end groups; capitals alone tell only the bases. e = 2'-O-(2-methoxyethyl) (MOE); [5mC] = 5-methylcytosine; d = 2'-deoxy (DNA)
# Test system: human PKK mRNA
# Assay: Antisense inhibition of human PKK mRNA in HepaRG cells, 3,000 nM (Example 1)
# Type: cell-based
# Conditions: relative to untreated control cells
# Method in brief: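 HepaRG cells, 20,000 per well, were electroporated with 3,000 nM 5-10-5 MOE gapmer (phosphorothioate, 5-methylcytosine). After about 24 h, PKK mRNA was measured by qRT-PCR with primer probe set RTS3454 and normalised to RIBOGREEN total RNA. Values are percent inhibition versus untreated cells.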
# [1] = Table 1, PKK mRNA, HepaRG cells, 3,000 nM, electroporation, ~24 h
# [2] = Table 3, HepaRG cells, electroporation with 3,000 nM antisense oligonucleotide, approx. 24 hours, PKK mRNA by RT-PCR (RTS3454)
# [3] = Table 4, HepaRG cells, electroporation with 3,000 nM antisense oligonucleotide, approx. 24 hours, PKK mRNA by RT-PCR (RTS3454)
# [4] = Table 2, PKK mRNA, HepaRG cells, 3,000 nM, electroporation, ~24 h
substance,measurement,setting,value
530976 (antisense eA*eT*eA*eT*eG*dG*dT*dG*dT*dT*dT*dT*d[5mC]*dT*dT*eG*eA*eG*eG*eA) [compound 530976],% inhibition,[1],26%
531128 (antisense eA*eA*eG*eT*eT*d[5mC]*d[5mC]*dA*d[5mC]*d[5mC]*dT*dT*d[5mC]*dT*dA*eA*e[5mC]*eT*eG*eG) [compound 531128],% inhibition,[2],18%
531212 (eA*e[5mC]*eA*eT*e[5mC]*dA*dG*dT*dA*dG*d[5mC]*dT*dT*d[5mC]*dA*eG*eA*eT*eG*eT; antisense) [compound 531212],% inhibition,[3],56%
531044 (antisense eG*eG*e[5mC]*eA*eT*dT*d[5mC]*dT*dT*d[5mC]*dA*dT*dT*dT*dG*eT*eT*eA*e[5mC]*e[5mC]) [compound 531044],% inhibition,[4],68%
531182 (antisense eA*eT*eA*eA*eT*d[5mC]*dA*dT*dG*dA*dT*dT*dT*dA*dT*eT*eT*eT*eG*e[5mC]) [compound 531182],% inhibition,[3],34%
530987 (eA*e[5mC]*eT*e[5mC]*e[5mC]*d[5mC]*dG*dG*dG*dT*dA*dA*dA*dT*dT*eT*eT*eA*eG*eA; antisense) [compound 530987],% inhibition,[1],0%
531037 (antisense eA*eA*e[5mC]*eA*eG*dT*dT*dG*dG*dT*dA*dT*dA*dA*dA*eT*eT*eG*eT*eG) [compound 531037],% inhibition,[4],35%
531196 (eT*eT*eG*eA*eG*dT*d[5mC]*dA*dG*dA*d[5mC]*dA*dT*d[5mC]*d[5mC]*eT*eG*eT*eG*eA; antisense) [compound 531196],% inhibition,[3],38%
531124 (antisense eG*eT*eA*e[5mC]*eT*dA*dA*dA*d[5mC]*dA*dT*d[5mC]*d[5mC]*dT*dA*eA*eG*eT*eG*eA) [compound 531124],% inhibition,[2],2%
531120 (antisense eA*eA*eA*eT*eA*dA*dA*dA*dG*d[5mC]*dA*d[5mC]*dT*d[5mC]*dA*eG*eA*e[5mC]*eT*eG) [compound 531120],% inhibition,[2],0%
531152 (antisense eG*eT*eT*eA*eT*dG*dG*dA*dT*dA*dT*dA*dG*dA*d[5mC]*eT*eT*eT*eA*eA) [compound 531152],% inhibition,[2],0%
531145 (antisense eG*e[5mC]*e[5mC]*eT*eA*dG*dG*dA*dG*dA*dG*dA*dA*dA*dA*eA*eT*eA*eA*eA) [compound 531145],% inhibition,[2],0%
531088 (eG*eG*eT*eT*eT*dT*dG*dT*dT*dT*dG*dT*dA*dA*dA*eA*eT*eT*eA*eG; antisense) [compound 531088],% inhibition,[2],27%
531201 (eT*eT*eT*e[5mC]*e[5mC]*dA*dA*dT*dA*d[5mC]*dT*dT*dT*dT*dA*e[5mC]*eA*eA*eA*eT; antisense) [compound 531201],% inhibition,[3],52%
530948 (antisense eA*e[5mC]*eA*eT*eG*dG*dA*dA*dG*d[5mC]*dT*dA*d[5mC]*dA*dT*e[5mC]*e[5mC]*e[5mC]*e[5mC]*eA) [compound 530948],% inhibition,[1],35%
531061 (antisense eT*eG*e[5mC]*eT*e[5mC]*d[5mC]*d[5mC]*dT*dG*d[5mC]*dG*dG*dG*d[5mC]*dA*e[5mC]*eA*eG*e[5mC]*e[5mC]) [compound 531061],% inhibition,[4],52%
531220 (e[5mC]*eA*eA*eT*eA*d[5mC]*dA*dG*dG*dT*dA*dA*dA*dT*dT*eT*e[5mC]*eA*e[5mC]*eG; antisense) [compound 531220],% inhibition,[3],56%
531136 (antisense eT*eA*eA*e[5mC]*eA*dT*dT*dT*d[5mC]*dT*dA*dT*dG*dG*dG*e[5mC]*e[5mC]*eT*eG*eA) [compound 531136],% inhibition,[2],6%
531036 (antisense eG*eT*eG*eT*e[5mC]*dA*d[5mC]*d[5mC]*dT*dT*dT*dG*dG*dA*dA*eG*eG*eT*eA*eG) [compound 531036],% inhibition,[4],71%
531195 (eA*eT*eA*eA*eA*dA*dT*dA*dT*dA*dT*dT*dA*dA*dG*eG*e[5mC]*eA*eA*e[5mC]; antisense) [compound 531195],% inhibition,[3],61%
531025 (eT*e[5mC]*eT*e[5mC]*eT*dT*dT*dT*dA*dT*dT*dT*dG*dT*dG*eA*eG*eA*eA*eA; antisense) [compound 531025],% inhibition,[4],34%
531079 (eT*e[5mC]*e[5mC]*eT*e[5mC]*dA*dG*d[5mC]*dA*dG*d[5mC]*dT*d[5mC]*dT*dG*eA*eG*eT*eG*e[5mC]; antisense) [compound 531079],% inhibition,[4],58%
531204 (e[5mC]*eT*eT*eG*eT*dA*dG*dT*d[5mC]*dT*dG*d[5mC]*dA*d[5mC]*dT*eT*eA*eA*eT*eG; antisense) [compound 531204],% inhibition,[3],60%
531070 (e[5mC]*eT*eG*eT*eG*dT*dT*dT*dT*d[5mC]*dT*d[5mC]*dT*dA*dA*eA*eA*eT*e[5mC]*e[5mC]; antisense) [compound 531070],% inhibition,[4],68%
531146 (antisense e[5mC]*e[5mC]*eA*eG*eT*dG*dT*dA*dA*dT*dT*d[5mC]*dA*dA*dA*eG*eG*eA*eG*e[5mC]) [compound 531146],% inhibition,[2],40%
531215 (eT*eA*eG*eA*eG*dA*dT*dT*dT*dT*dA*dT*dG*dT*dA*e[5mC]*eT*eT*eG*eG; antisense) [compound 531215],% inhibition,[3],63%
531009 (eT*eT*eT*eG*eT*dT*d[5mC]*d[5mC]*dT*d[5mC]*d[5mC]*dA*dA*d[5mC]*dA*eA*eT*eG*e[5mC]*eG; antisense) [compound 531009],% inhibition,[4],65%
531014 (eA*eG*e[5mC]*eT*eT*d[5mC]*dA*d[5mC]*d[5mC]*dT*dG*d[5mC]*dA*dG*dG*e[5mC]*eT*e[5mC]*eA*e[5mC]; antisense) [compound 531014],% inhibition,[4],0%
531007 (eA*eA*e[5mC]*eA*e[5mC]*dA*dA*dT*dT*dG*d[5mC]*dT*dT*d[5mC]*dT*eT*eG*eG*eA*eG; antisense) [compound 531007],% inhibition,[4],51%
531186 (e[5mC]*e[5mC]*eA*eT*eT*dA*d[5mC]*dT*d[5mC]*dT*d[5mC]*dA*dA*dG*d[5mC]*eT*e[5mC]*e[5mC]*eA*e[5mC]; antisense) [compound 531186],% inhibition,[3],75%
530972 (antisense eG*eT*eA*eG*eA*dG*dG*dA*dA*d[5mC]*dT*dT*dG*dG*dT*eG*eT*eG*e[5mC]*e[5mC]) [compound 530972],% inhibition,[1],42%
531033 (antisense eA*eT*eT*eG*eG*dT*dT*dT*dT*dT*dG*dG*dA*dA*dT*eT*e[5mC]*eA*eG*eT) [compound 531033],% inhibition,[4],53%
530968 (antisense e[5mC]*eA*eA*eG*eA*dT*dG*d[5mC]*dT*dG*dG*dA*dA*dG*dA*eT*eG*eT*eT*e[5mC]) [compound 530968],% inhibition,[1],18%
531095 (e[5mC]*eT*eA*eA*e[5mC]*dA*dA*d[5mC]*d[5mC]*d[5mC]*d[5mC]*dA*d[5mC]*dA*dA*eT*eA*eT*e[5mC]*eA; antisense) [compound 531095],% inhibition,[2],20%
531035 (antisense eG*eT*eA*eG*eG*d[5mC]*dA*dT*dA*dT*dT*dG*dG*dT*dT*eT*eT*eT*eG*eG) [compound 531035],% inhibition,[4],46%
530991 (eA*eT*eT*e[5mC]*eA*dA*dT*dT*d[5mC]*dT*dT*d[5mC]*dT*d[5mC]*d[5mC]*eT*e[5mC]*e[5mC]*eA*eA; antisense) [compound 530991],% inhibition,[1],43%
530979 (antisense eG*eG*eT*eT*eA*dA*dA*dA*dG*dG*d[5mC]*dT*dA*dT*dA*eT*e[5mC]*e[5mC]*eA*eG) [compound 530979],% inhibition,[1],35%
531125 (antisense eA*e[5mC]*eT*e[5mC]*eG*d[5mC]*d[5mC]*dT*dT*dT*dG*dT*dG*dA*d[5mC]*eT*e[5mC]*eG*eA*eT) [compound 531125],% inhibition,[2],23%
531100 (e[5mC]*e[5mC]*e[5mC]*e[5mC]*e[5mC]*dT*d[5mC]*d[5mC]*d[5mC]*dT*dT*d[5mC]*d[5mC]*d[5mC]*dT*eA*e[5mC]*eA*e[5mC]*eA; antisense) [compound 531100],% inhibition,[2],0%
531114 (antisense eA*eG*eA*eG*eT*d[5mC]*dA*dA*dG*dT*d[5mC]*d[5mC]*dA*d[5mC]*dA*eG*eA*e[5mC]*eA*eT) [compound 531114],% inhibition,[2],40%
531151 (antisense eT*e[5mC]*eA*e[5mC]*e[5mC]*dA*d[5mC]*d[5mC]*dA*dT*dT*dT*dT*dT*d[5mC]*eA*e[5mC]*eA*eT*eG) [compound 531151],% inhibition,[2],44%
531016 (eT*eG*eT*e[5mC]*e[5mC]*dT*dA*dT*dG*dA*dG*dT*dG*dA*d[5mC]*e[5mC]*e[5mC]*eT*e[5mC]*e[5mC]; antisense) [compound 531016],% inhibition,[4],39%
531027 (antisense eA*eA*eA*eG*eG*dA*dG*d[5mC]*d[5mC]*dT*dG*dG*dA*dG*dT*eT*eT*eT*eA*eT) [compound 531027],% inhibition,[4],0%
530996 (eT*eG*eA*e[5mC]*eA*dG*d[5mC]*dG*dA*dA*dT*d[5mC]*dA*dT*d[5mC]*eT*eT*eT*eG*eT; antisense) [compound 530996],% inhibition,[1],51%
530994 (e[5mC]*eT*eT*eG*eG*d[5mC]*dA*dA*dA*d[5mC]*dA*dT*dT*d[5mC]*dA*e[5mC]*eT*e[5mC]*e[5mC]*eT; antisense) [compound 530994],% inhibition,[1],50%
530974 (antisense eT*eT*e[5mC]*eT*eT*dG*dA*dG*dG*dA*dG*dT*dA*dG*dA*eG*eG*eA*eA*e[5mC]) [compound 530974],% inhibition,[1],18%
531064 (antisense eG*eT*eG*eT*eA*dG*dA*d[5mC]*dA*d[5mC]*d[5mC]*dA*dG*dG*dT*eT*eG*e[5mC]*eT*e[5mC]) [compound 531064],% inhibition,[4],56%
531041 (antisense eA*eA*eA*eG*eG*dA*dA*dT*dA*dT*dT*dT*dA*d[5mC]*d[5mC]*eT*eT*eT*eT*eG) [compound 531041],% inhibition,[4],68%
